Legend:
[1] = target: Muscarinic acetylcholine receptor M2 (Homo sapiens) (UniProt P08172); conditions: Compound concentration 10.0 uM
[2] = target: D(3) dopamine receptor (Homo sapiens) (UniProt P35462); conditions: Compound concentration 10.0 uM
[3] = target: 5-hydroxytryptamine receptor 3A (Homo sapiens) (UniProt P46098); conditions: Compound concentration 10.0 uM
[4] = target: Sodium-dependent dopamine transporter (Homo sapiens) (UniProt Q01959); conditions: Compound concentration 10.0 uM
[5] = target: Muscarinic acetylcholine receptor M4 (Homo sapiens) (UniProt P08173); conditions: Compound concentration 10.0 uM
[6] = target: Alpha-1D adrenergic receptor (Homo sapiens) (UniProt P25100); conditions: Compound concentration 10.0 uM
[7] = target: Muscarinic acetylcholine receptor M3 (Homo sapiens) (UniProt P20309); conditions: Compound concentration 10.0 uM
[8] = target: Sodium-dependent noradrenaline transporter (Homo sapiens) (UniProt P23975); conditions: Compound concentration 10.0 uM
[9] = target: 5-hydroxytryptamine receptor 7 (Homo sapiens) (UniProt P34969); conditions: Compound concentration 10.0 uM
[10] = target: Beta-1 adrenergic receptor (Homo sapiens) (UniProt P08588); conditions: Compound concentration 10.0 uM
[11] = target: Muscarinic acetylcholine receptor M1 (Homo sapiens) (UniProt P11229); conditions: Compound concentration 10.0 uM
[12] = target: 5-hydroxytryptamine receptor 2C (Homo sapiens) (UniProt P28335); conditions: Compound concentration 10.0 uM
[13] = species on record: Rattus norvegicus; conditions: Compound concentration 10.0 uM
[14] = target: Ribosomal protein S6 kinase alpha-5 (Homo sapiens) (UniProt O75582); conditions: Compound concentration 100.0 nM
[15] = target: Mitogen-activated protein kinase 14 (Homo sapiens) (UniProt Q16539); conditions: Compound concentration 100.0 nM
[16] = target: Tyrosine-protein kinase ABL1 (Homo sapiens) (UniProt P00519); conditions: Compound concentration 100.0 nM

5-hydroxytryptamine receptor 3A (Homo sapiens), sequence (P46098 whole entry): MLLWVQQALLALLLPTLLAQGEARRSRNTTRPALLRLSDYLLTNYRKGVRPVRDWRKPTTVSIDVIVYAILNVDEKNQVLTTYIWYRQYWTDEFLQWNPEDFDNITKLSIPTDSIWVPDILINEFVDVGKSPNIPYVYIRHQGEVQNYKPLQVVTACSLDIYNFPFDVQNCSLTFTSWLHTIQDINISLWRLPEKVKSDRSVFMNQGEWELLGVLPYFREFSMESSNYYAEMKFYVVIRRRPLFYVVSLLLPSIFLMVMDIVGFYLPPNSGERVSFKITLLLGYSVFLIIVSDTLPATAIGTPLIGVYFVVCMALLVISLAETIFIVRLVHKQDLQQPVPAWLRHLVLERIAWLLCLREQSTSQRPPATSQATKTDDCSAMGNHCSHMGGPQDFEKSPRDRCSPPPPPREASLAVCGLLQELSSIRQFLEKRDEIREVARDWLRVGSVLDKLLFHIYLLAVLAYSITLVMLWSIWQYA
Muscarinic acetylcholine receptor M1 (Homo sapiens), sequence (P11229 whole entry): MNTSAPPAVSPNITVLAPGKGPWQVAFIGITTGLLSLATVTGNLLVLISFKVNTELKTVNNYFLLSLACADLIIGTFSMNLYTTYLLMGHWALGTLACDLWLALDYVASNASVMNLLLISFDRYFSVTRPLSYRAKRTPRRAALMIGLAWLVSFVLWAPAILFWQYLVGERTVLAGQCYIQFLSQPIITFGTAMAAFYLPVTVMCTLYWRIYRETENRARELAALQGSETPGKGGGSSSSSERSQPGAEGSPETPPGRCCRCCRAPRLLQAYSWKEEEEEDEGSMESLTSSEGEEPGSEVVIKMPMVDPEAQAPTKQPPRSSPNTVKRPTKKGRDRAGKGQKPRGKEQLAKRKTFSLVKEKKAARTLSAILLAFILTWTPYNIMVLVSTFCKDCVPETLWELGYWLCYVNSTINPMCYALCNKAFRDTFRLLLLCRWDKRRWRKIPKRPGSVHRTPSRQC
Muscarinic acetylcholine receptor M3 (Homo sapiens), sequence (P20309 whole entry, looked up): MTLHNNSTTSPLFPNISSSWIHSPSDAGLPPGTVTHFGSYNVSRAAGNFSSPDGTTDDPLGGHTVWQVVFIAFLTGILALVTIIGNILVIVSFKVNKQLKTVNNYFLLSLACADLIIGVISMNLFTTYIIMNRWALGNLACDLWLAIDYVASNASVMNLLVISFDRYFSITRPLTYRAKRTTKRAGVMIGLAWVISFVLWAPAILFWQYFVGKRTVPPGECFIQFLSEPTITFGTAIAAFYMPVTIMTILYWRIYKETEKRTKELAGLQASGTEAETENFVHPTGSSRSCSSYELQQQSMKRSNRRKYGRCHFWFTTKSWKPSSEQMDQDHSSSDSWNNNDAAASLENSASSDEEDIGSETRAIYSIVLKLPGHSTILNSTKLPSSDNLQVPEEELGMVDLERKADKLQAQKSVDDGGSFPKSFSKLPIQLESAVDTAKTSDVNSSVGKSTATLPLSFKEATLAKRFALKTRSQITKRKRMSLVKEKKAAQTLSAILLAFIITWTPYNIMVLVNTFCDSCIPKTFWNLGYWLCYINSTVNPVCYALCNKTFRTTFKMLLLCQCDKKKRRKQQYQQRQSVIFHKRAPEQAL
Alpha-1D adrenergic receptor (Homo sapiens), sequence (P25100 whole entry): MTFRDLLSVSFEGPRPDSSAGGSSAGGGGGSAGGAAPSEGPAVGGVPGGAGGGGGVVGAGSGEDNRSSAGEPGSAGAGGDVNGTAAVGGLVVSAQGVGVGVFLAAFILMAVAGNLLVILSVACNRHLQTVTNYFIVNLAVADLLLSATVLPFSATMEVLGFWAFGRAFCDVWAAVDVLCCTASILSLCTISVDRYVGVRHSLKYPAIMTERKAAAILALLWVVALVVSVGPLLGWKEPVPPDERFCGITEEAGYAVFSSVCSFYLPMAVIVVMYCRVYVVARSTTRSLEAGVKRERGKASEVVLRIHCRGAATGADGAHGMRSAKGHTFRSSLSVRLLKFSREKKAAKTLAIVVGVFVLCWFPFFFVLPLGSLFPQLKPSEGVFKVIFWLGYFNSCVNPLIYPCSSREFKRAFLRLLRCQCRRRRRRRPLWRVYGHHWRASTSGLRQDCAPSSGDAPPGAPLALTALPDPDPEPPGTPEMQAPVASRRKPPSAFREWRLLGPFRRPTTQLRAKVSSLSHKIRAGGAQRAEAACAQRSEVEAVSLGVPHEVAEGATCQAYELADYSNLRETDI
Muscarinic acetylcholine receptor M2 (Homo sapiens), sequence (P08172 whole entry): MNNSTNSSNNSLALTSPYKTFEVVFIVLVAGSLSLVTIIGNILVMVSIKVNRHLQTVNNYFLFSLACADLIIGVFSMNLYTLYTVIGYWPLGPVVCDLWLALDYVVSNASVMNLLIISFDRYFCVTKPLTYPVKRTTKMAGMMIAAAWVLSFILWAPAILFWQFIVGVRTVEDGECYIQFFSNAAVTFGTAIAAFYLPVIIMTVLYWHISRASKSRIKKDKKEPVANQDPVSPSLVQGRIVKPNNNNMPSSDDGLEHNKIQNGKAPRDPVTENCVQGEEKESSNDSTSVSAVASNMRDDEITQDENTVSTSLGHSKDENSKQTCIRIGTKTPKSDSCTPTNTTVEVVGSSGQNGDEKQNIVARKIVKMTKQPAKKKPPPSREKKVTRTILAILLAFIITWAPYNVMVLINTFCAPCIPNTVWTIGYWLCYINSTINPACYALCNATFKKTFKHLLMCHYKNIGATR
Ribosomal protein S6 kinase alpha-5 (Homo sapiens), sequence (O75582 whole entry, looked up): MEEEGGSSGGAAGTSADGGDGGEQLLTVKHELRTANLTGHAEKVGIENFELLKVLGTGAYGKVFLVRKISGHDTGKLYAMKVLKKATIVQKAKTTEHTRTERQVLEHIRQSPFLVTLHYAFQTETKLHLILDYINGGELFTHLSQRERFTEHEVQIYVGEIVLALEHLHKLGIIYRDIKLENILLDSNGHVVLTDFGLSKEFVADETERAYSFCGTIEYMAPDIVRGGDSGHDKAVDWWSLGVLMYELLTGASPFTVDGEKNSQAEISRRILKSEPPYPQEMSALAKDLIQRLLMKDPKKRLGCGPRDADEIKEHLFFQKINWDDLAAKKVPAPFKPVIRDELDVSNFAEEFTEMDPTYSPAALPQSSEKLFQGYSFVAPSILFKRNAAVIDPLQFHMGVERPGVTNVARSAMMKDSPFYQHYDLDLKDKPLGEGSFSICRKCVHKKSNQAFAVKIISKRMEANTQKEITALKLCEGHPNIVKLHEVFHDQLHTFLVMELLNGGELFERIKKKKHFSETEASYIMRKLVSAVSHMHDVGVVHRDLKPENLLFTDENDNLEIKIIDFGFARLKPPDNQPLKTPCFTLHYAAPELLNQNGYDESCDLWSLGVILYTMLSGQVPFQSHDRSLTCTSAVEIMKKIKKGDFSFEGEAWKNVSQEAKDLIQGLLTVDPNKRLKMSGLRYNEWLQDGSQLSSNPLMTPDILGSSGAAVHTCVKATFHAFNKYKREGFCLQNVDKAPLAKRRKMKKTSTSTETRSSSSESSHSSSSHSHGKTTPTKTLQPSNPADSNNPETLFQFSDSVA
Mitogen-activated protein kinase 14 (Homo sapiens), sequence (Q16539 whole entry): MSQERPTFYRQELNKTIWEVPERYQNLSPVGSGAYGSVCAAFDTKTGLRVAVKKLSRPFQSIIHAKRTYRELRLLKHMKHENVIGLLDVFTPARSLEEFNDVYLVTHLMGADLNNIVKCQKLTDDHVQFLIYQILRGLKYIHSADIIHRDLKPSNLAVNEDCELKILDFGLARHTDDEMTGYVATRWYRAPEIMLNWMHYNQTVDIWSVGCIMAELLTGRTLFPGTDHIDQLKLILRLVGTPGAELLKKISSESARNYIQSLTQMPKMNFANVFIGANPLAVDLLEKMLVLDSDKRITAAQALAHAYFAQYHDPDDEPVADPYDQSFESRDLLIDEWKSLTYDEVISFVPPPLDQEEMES
Sodium-dependent noradrenaline transporter (Homo sapiens), sequence (P23975 whole entry): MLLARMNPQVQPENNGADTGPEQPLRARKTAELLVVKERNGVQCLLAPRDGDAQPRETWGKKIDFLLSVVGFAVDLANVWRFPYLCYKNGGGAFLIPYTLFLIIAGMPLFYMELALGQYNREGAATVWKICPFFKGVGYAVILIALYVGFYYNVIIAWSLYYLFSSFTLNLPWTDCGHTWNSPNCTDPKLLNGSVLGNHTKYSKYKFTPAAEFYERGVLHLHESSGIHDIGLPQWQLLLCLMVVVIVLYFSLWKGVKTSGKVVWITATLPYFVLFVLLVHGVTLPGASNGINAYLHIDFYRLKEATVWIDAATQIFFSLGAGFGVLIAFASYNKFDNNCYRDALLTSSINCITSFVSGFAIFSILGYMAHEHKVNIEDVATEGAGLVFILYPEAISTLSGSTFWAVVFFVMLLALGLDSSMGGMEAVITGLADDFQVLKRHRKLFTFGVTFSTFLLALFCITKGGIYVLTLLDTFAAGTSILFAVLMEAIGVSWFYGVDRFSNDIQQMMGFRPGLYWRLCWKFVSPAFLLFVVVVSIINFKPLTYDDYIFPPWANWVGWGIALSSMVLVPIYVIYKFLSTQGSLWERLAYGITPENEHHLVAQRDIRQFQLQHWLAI
Sodium-dependent dopamine transporter (Homo sapiens), sequence (Q01959 whole entry): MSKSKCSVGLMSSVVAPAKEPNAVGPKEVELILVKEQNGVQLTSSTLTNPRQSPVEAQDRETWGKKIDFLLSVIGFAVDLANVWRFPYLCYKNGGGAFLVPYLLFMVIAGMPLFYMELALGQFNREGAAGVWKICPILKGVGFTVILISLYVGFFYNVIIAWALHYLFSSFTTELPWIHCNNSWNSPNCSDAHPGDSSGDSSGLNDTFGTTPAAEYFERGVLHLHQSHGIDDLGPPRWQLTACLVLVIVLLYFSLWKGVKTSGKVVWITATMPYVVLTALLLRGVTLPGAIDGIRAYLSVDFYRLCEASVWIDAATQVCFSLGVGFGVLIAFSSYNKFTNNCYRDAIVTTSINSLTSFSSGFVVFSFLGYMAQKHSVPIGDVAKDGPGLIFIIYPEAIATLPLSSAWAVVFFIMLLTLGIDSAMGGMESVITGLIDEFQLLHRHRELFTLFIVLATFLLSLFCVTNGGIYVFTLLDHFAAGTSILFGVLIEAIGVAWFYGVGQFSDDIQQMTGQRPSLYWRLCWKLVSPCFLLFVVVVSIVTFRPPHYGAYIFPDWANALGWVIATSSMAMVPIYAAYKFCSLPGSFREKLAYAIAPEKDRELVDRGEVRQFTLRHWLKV

CS(=O)(=O)N1CCCC(NC(=O)[C@H](CCC2CCCCC2)NC(=O)c2ccc(CNC(=O)c3cnc4ccccn34)cc2)C1 (stereo partly specified) [SR-302]
inactive: inhibition [1] 18.5% | inhibition [2] 2.38% | inhibition [3] 3.83% | inhibition [4] 11.5% | inhibition [5] -2.24% | inhibition [6] 6.47% | inhibition [7] 20.6% | inhibition [8] 3% | inhibition [9] 11.3% | inhibition [10] 20.3% | inhibition [11] 28.4% | inhibition [12] 8.24% | inhibition [13] 13.2%

CS(=O)(=O)N1CCCC(NC(=O)[C@H](CCC2CCCCC2)NC(=O)c2ccc(CNc3ncnc4c3nnn4-c3ccccc3)cc2)C1 (stereo partly specified) [SR-301]
inactive: residual activity [14] 95% | residual activity [15] 100% | residual activity [16] 88%
